Experimental data: patent publication EP4678638A1, “NEW E3 UBIQUITIN LIGASE LIGAND, PROTEIN DEGRADATION AGENT AND USE THEREOF” (priority 2023, dated 2024)

Target: T1, human Cereblon WT GST-tagged protein (Homo sapiens, UniProt Q96SW2)
T1 construct: purchased CISBIO 64BDCRBNPEH
Experiment: CRBN binding, HTRF (CEREBLON BINDING kit)
Details: HTRF; for inhibition at 0.5 µM: read-out: Inhibition rate (%) at 0.5µM; for inhibition at 2 µM: read-out: Inhibition rate (%) at 2 µM
Protocol: The CEREBLON BINDING kits (specification: 10,000 tests; product number: Catalog # 64BDCRBNPEH; CISBIO company) was used to determine the CRBN binding ability of the compounds to be tested through a HTRF method (homogeneous time-resolved fluorescence). The specific methods are as follows: • 1. […] Then, 2.5 µL of human Cereblon WT GST-tagged protein solution was added to each well. Finally, 5 µL of the thoroughly mixed Thalidomide-Re reagent and GST Eu antibody working solution were added to each of the aforementioned wells. […] The blank control wells were sequentially added with 2.5 µL of diluent #9 (1X) solution, 2.5 µL of binding buffer, and 5 µL of thoroughly mixed Thalidomide-Re reagent and GST Eu antibody working solution. • 4. After sealing and incubating the solutions in the aforementioned wells at room temperature for 3 hours, the […] at emission wavelengths of 620 nm and 665 nm were detected by the HTRF method using a Spark microplate reader (V3.1 SP1).

[1] = Table II-2, CRBN binding screening, at 0.5µM
[2] = Table II-2, CRBN binding screening, at 2 µM

T1 sequence (Q96SW2 whole entry): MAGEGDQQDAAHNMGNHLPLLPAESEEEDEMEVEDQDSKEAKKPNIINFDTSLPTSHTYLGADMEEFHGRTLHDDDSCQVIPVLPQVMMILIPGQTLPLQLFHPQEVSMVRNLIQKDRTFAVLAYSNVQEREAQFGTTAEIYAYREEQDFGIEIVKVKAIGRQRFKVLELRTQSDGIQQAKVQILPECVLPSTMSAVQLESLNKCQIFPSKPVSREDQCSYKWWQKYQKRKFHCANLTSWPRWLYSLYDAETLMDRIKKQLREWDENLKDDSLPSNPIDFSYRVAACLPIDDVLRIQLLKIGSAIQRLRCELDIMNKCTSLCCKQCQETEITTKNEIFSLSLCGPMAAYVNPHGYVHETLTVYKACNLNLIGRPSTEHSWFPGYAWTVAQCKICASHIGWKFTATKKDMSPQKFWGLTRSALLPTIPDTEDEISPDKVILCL

SMILES | Inhibition rate (%) at 0.5µM [1] | Inhibition rate (%) at 2 µM [2] | inhibition at 0.5 µM [1] | inhibition at 2 µM [2] | IC50 (Table II-1, CRBN binding)
CC1(C)CCC(c2ccc(Cl)cc2)=C(CN2CCN(c3ccc(C(=O)NS(=O)(=O)c4ccc(N[C@H](CCN5CC6CCC5CN6Cc5ccc(C6CCC(=O)NC6=O)cc5)CSc5ccccc5)c(S(=O)(=O)C(F)(F)F)c4)cc3)CC2)C1 (stereo partly drawn) [GT-07878, 4-(4-((4'-chloro-4,4-dimethyl-3,4,5,6-tetrahydro-[1,1'-biphenyl]-2-yl)methyl)piperazin-1-yl)-N-((4-(((2R)-4-(5-(4-(2,6-dioxopiperidin-3-yl)benzyl)-2,5-diazabicyclo[2.2.2]octan-2-yl)-1-(phenylthio)butan-2-yl)amino)-3-((trifluoromethyl)sulfonyl)phenyl)sulfonyl)benzamide] | a3 (30% < a3 ≤ 40%) | a5 (53% < a5 ≤ 60%) | – | – | –
CN(c1nccnc1CNc1nc(Nc2ccc(N3CCN(Cc4cc(C5CCC(=O)NC5=O)cnc4F)CC3)cc2)ncc1C(F)(F)F)S(C)(=O)=O (centres unmarked) [GT-07397, N-(3-(((2-((4-(4-((5-(2,6-dioxopiperidin-3-yl)-2-fluoropyridin-3-yl)methyl)piperazin-1-yl)phenyl)amino)-5-(trifluoromethyl)pyrimidin-4-yl)amino)methyl)pyrazin-2-yl)-N-methylmethanesulfonamide] | – | – | 30 to 40% | 60 to 80% | –
COc1cc2nn(C3CCN(Cc4ccc(C5CCC(=O)NC5=O)cn4)CC3)cc2cc1NC(=O)c1cccc(C(F)(F)F)n1 (centres unmarked) [GT-07534, N-(2-(1-((5-(2,6-dioxopiperidin-3-yl)pyridin-2-yl)methyl)piperidin-4-yl)-6-methoxy-2H-indazol-5-yl)-6-(trifluoromethyl)picolinamide] | – | – | 10 to 20% | 53 to 60% | –
CC(C)(O)c1cc2nc(C3CCN(Cc4cc(C5CCC(=O)NC5=O)cnc4F)CC3)oc2cc1NC(=O)c1cccc(C(F)(F)F)n1 (centres unmarked) [GT-07629, N-(2-(1-((5-(2,6-dioxopiperidin-3-yl)-2-fluoropyridin-3-yl)methyl)piperidin-4-yl)-5-(2-hydroxypropan-2-yl)benzo[d]oxazol-6-yl)-6-(trifluoromethyl)picolinamide] | – | – | 60 to 80% | 80 to 100% | –
COc1cc2nn(C3CCN(Cc4cc(N5CCC(=O)NC5=O)cnc4F)CC3)cc2cc1NC(=O)c1cccc(C(F)(F)F)n1 [GT-07799, N-(2-(1-((5-(2,4-dioxotetrahydropyrimidin-1(2H)-yl)-2-fluoropyridin-3-yl)methyl)piperidin-4-yl)-6-methoxy-2H-indazol-5-yl)-6-(trifluoromethyl)picolinamide] | – | – | 20 to 30% | 60 to 80% | –
CNC(=O)c1ccccc1Nc1cc(Nc2ccc(N3CCC(N(C)Cc4cc(C5CCC(=O)NC5=O)cnc4F)CC3)cc2OC)ncc1C(F)(F)F (centres unmarked) [GT-07656, 2-((2-((4-(4-(((5-(2,6-dioxopiperidin-3-yl)-2-fluoropyridin-3-yl)methyl)(methyl)amino)piperidin-1-yl)-2-methoxyphenyl)amino)-5-(trifluoromethyl)pyridin-4-yl)amino)-N-methylbenzamide] | – | – | 20 to 30% | 60 to 80% | –
O=C1CCN(c2cnc(F)c(CN3C[C@H]4C[C@@H]3CN4c3ccc(-c4cc(F)c5c(c4)C(=O)N(C(C(=O)Nc4nccs4)c4ncn6c4CCC6)C5)cc3)c2)C(=O)N1 (stereo partly drawn) [GT-07825, 2-(6,7-dihydro-5H-pyrrolo[1,2-c]imidazol-1-yl)-2-(6-(4-((1R,4R)-5-((5-(2,4-dioxotetrahydropyrimidin-1(2H)-yl)-2-fluoropyridin-3-yl)methyl)-2,5-diazabicyclo[2.2.1]heptan-2-yl)phenyl)-4-fluoro-1-oxoisoindolin-2-yl)-N-(thiazol-2-yl)acetamide] | – | – | 60 to 80% | 80 to 100% | –
CC(C)(O)c1cc2nn(C3CCN(Cc4ccc(C5CCC(=O)NC5=O)cn4)CC3)cc2cc1NC(=O)c1cccc(C(F)(F)F)n1 (centres unmarked) [GT-07541, N-(2-(1-((5-(2,6-dioxopiperidin-3-yl)pyridin-2-yl)methyl)piperidin-4-yl)-6-(2-hydroxypropan-2-yl)-2H-indazol-5-yl)-6-(trifluoromethyl)picolinamide] | – | – | 40 to 53% | 60 to 80% | –
O=C1CCC(c2cnc(F)c(CN3CCC(n4cc(NC(=O)c5cnn6ccc(N7C[C@H]8C[C@@H]7CO8)nc56)c(C(F)F)n4)CC3)c2)C(=O)N1 (stereo partly drawn) [GT-07775, 5-((1R,4R)-2-oxa-5-azabicyclo[2.2.1]heptan-5-yl)-N-(3-(difluoromethyl)-1-(1-((5-(2,6-dioxopiperidin-3-yl)-2-fluoropyridin-3-yl)methyl)piperidin-4-yl)-1H-pyrazol-4-yl)pyrazolo[1,5-a]pyrimidine-3-carboxamide] | – | – | 60 to 80% | 80 to 100% | –
[2H]C1([2H])N(CC[C@H](CSc2ccccc2)Nc2ccc(S(=O)(=O)NC(=O)c3ccc(N4CCN(CC5=C(c6ccc(Cl)cc6)CCC(C)(C)C5)CC4)cc3)cc2S(=O)(=O)C(F)(F)F)C([2H])([2H])C([2H])([2H])N(Cc2ccc(C3CCC(=O)NC3=O)cc2)C1([2H])[2H] (stereo partly drawn) [GT-07906, 4-(4-((4'-chloro-4,4-dimethyl-3,4,5,6-tetrahydro-[1,1'-biphenyl]-2-yl)methyl)piperazin-1-yl)-N-((4-(((2R)-4-(4-(4-(2,6-dioxopiperidin-3-yl)benzyl)piperazin-1-yl-2,2,3,3,5,5,6,6-d8)-1-(phenylthio)butan-2-yl)amino)-3-((trifluoromethyl)sulfonyl)phenyl)sulfonyl)benzamide] | – | – | 20 to 30% | 53 to 60% | –
O=C1CCN(c2cnc(F)c(CN3CCC(n4cc(NC(=O)c5cnn6ccc(N7CCOCC7)nc56)c(C(F)F)n4)CC3)c2)C(=O)N1 [GT-07789, N-(3-(difluoromethyl)-1-(1-((5-(2,4-dioxotetrahydropyrimidin-1(2H)-yl)-2-fluoropyridin-3-yl)methyl)piperidin-4-yl)-1H-pyrazol-4-yl)-5-morpholinopyrazolo[1,5-a]pyrimidine-3-carboxamide] | – | – | 20 to 30% | 60 to 80% | –
O=C1CCN(c2cncc(CN3CCC(n4cc(NC(=O)c5cnn6ccc(N7CCOCC7)nc56)c(C(F)F)n4)CC3)c2)C(=O)N1 [GT-07766, N-(3-(difluoromethyl)-1-(1-((5-(2,4-dioxotetrahydropyrimidin-1(2H)-yl)pyridin-3-yl)methyl)piperidin-4-yl)-1H-pyrazol-4-yl)-5-morpholinopyrazolo[1,5-a]pyrimidine-3-carboxamide] | – | – | 30 to 40% | 60 to 80% | –
CC(C)(O)c1cc2nc(C3CCN(Cc4cc(C5CCC(=O)NC5=O)cnc4F)CC3)sc2cc1NC(=O)c1cccc(C(F)(F)F)n1 (centres unmarked) [GT-07621, N-(2-(1-((5-(2,6-dioxopiperidin-3-yl)-2-fluoropyridin-3-yl)methyl)piperidin-4-yl)-5-(2-hydroxypropan-2-yl)benzo[d]thiazol-6-yl)-6-(trifluoromethyl)picolinamide] | – | – | 53 to 60% | 60 to 80% | –
O=C1CCN(c2cccc(CN3CCN(C4CCN(c5ccc([C@@H]6c7ccc(O)cc7CC[C@@H]6c6ccccc6)cc5)CC4)CC3)c2)C(=O)N1 [GT-04685, 1-(3-((4-(1-(4-((1R,2S)-6-hydroxy-2-phenyl-1,2,3,4-tetrahydronaphthalen-1-yl)phenyl)piperidin-4-yl)piperazin-1-yl)methyl)phenyl)dihydropyr imidine-2,4(1H,3H)-dione] | – | – | – | – | 500 to 1000 nM
COc1cc2nn(C3CCN(Cc4cc(C5CCC(=O)NC5=O)cnc4F)CC3)cc2cc1NC(=O)c1cccc(C(F)(F)F)c1 (centres unmarked) [GT-07547, N-(2-(1-((5-(2,6-dioxopiperidin-3-yl)-2-fluoropyridin-3-yl)methyl)piperidin-4-yl)-6-methoxy-2H-indazol-5-yl)-3-(trifluoromethyl)benzamide] | – | – | 40 to 53% | 80 to 100% | –
Cc1ccc(C(=O)Nc2ccc(N3CCC(N(C)Cc4ccc(C5CCC(=O)NC5=O)cc4)CC3)c(C(F)(F)F)c2)cc1C#Cc1cnc2cccnn12 (centres unmarked) [GT-04106, N-(4-(4-((4-(2,6-dioxopiperidin-3-yl)benzyl)(methyl)amino)piperidin-1-yl)-3-(trifluoromethyl)phenyl)-3-(imidazo[1,2-b]pyridazin-3-ylethynyl)-4-methylbenzamide] | – | – | 40 to 53% | 60 to 80% | –
CC(C)(O)c1cc2nn(C3CCN(Cc4cc(C5CCC(=O)NC5=O)cnc4F)CC3)cc2cc1NC(=O)c1cccc(C(F)(F)F)n1 (centres unmarked) [GT-07793, N-(2-(1-((5-(2,6-dioxopiperidin-3-yl)-2-fluoropyridin-3-yl)methyl)piperidin-4-yl)-6-(2-hydroxypropan-2-yl)-2H-indazol-5-yl)-6-(trifluoromethyl)picolinamide] | – | – | 60 to 80% | 80 to 100% | –
CC(=O)c1c(C)c2cnc(Nc3ccc(N4CCN(Cc5ccc(C6CCC(=O)NC6=O)cn5)CC4)cn3)nc2n(C2CCCC2)c1=O (centres unmarked) [GT-07483, 3-(6-((4-(6-((6-acetyl-8-cyclopentyl-5-methyl-7-oxo-7,8-dihydropyrido[2,3-d]pyrimidin-2-yl)amino)pyridin-3-yl)piperazin-1-yl)methyl)pyridin-3-yl)piperidine-2,6-dione] | – | – | 53 to 60% | 80 to 100% | –
